ChEMBL document CHEMBL1149222, “Synthesis and in vitro antimycobacterial activity of novel 3-(1H-pyrrol-1-yl)-2-oxazolidinone analogues of PNU-100480” (2004)
Converted amounts (≈) assume the structure as drawn.

Tests used:
Assay type in all cases: functional
[1] = test system: Mycobacterium tuberculosis; assay: In vitro anti-mycobacterial activity against Mycobacterium tuberculosis C.I. 1104, determined by the MTT method
[2] = test system: Mycobacterium; assay: In vitro anti-mycobacterial activity against Mycobacterium avium complex was determined
[3] = test system: MT4; assay: Cytotoxicity of compound against mock-infected MT-4 cells was evaluated by MTT assay; settings: Homo sapiens
[4] = test system: Mycolicibacterium smegmatis; assay: In vitro anti-mycobacterial activity against Mycobacterium smegmatis was determined
[5] = test system: Mycobacterium tuberculosis; assay: In vitro anti-mycobacterial activity against Mycobacterium tuberculosis ATCC 27294 was determined
[6] = test system: Mycobacterium tuberculosis; assay: In vitro anti-mycobacterial activity against Mycobacterium tuberculosis ATCC 27294, determined by the MTT method
[7] = test system: Mycobacterium tuberculosis; assay: In vitro anti-mycobacterial activity against Mycobacterium tuberculosis C.I. 1104 was determined
[8] = test system: Mycolicibacterium smegmatis; assay: (§1) In vitro anti-mycobacterial activity against Mycobacterium smegmatis determined by the MTT method
[9] = test system: Mycobacterium; assay: as §1
[10] = test system: Mycolicibacterium fortuitum; assay: In vitro anti-mycobacterial activity against Mycobacterium fortuitum was determined
[11] = test system: Mycolicibacterium fortuitum; assay: In vitro anti-mycobacterial activity against Mycobacterium fortuitum determined by the MTT method

SMILES	MIC90 [1] [µM]	MIC50 [2] [µM]	CC50 [3] [µM]	MIC50 [4] [µM]	MIC50 [5] [µM]	MIC90 [6] [µM]	MIC50 [7] [µM]	MIC90 [8] [µM]	MIC90 [9] [µM]	MIC50 [10] [µM]	MIC90 [11] [µM]
CC(=O)NC[C@H]1CN(c2ccc(N3CCSCC3)c(F)c2)C(=O)O1 [SUTEZOLID]	2.5 (≈ 0.884 µg/mL)	0.7 (≈ 0.247 µg/mL)	> 100	0.5 (≈ 0.177 µg/mL)	0.1 (≈ 0.0353 µg/mL)	0.9 (≈ 0.318 µg/mL)	0.5 (≈ 0.177 µg/mL)	1.6 (≈ 0.565 µg/mL)	5 (≈ 1.77 µg/mL)	> 100	
CC(=O)NC[C@H]1CN(c2ccn(-c3ccc(N4CCSCC4)c(F)c3)c2)C(=O)O1	31 (≈ 13 µg/mL)	4.8 (≈ 2.01 µg/mL)	20	34 (≈ 14.2 µg/mL)	9.8 (≈ 4.1 µg/mL)	25 (≈ 10.5 µg/mL)	12.2 (≈ 5.11 µg/mL)	> 100	11.8 (≈ 4.94 µg/mL)	> 100	
CC(=O)NC[C@H]1CN(c2ccn(-c3ccc(F)cc3)c2)C(=O)O1		1.4 (≈ 0.444 µg/mL)	100	10.3 (≈ 3.27 µg/mL)	1.9 (≈ 0.603 µg/mL)	19.7 (≈ 6.25 µg/mL)		45.8 (≈ 14.5 µg/mL)	5.8 (≈ 1.84 µg/mL)	> 100	
CC(=O)NC[C@H]1CN(c2ccn(-c3ccccc3)c2)C(=O)O1	77.8 (≈ 23.3 µg/mL)	4 (≈ 1.2 µg/mL)	> 100	9.8 (≈ 2.93 µg/mL)	19 (≈ 5.69 µg/mL)	74 (≈ 22.2 µg/mL)	10.5 (≈ 3.14 µg/mL)	41.3 (≈ 12.4 µg/mL)	32.8 (≈ 9.82 µg/mL)	> 100	
CC(=O)NC[C@H]1CN(c2ccn(-c3ccc(N4CCOCC4)c(F)c3)c2)C(=O)O1	> 100	16.5 (≈ 6.64 µg/mL)	> 100	42.6 (≈ 17.1 µg/mL)	12.9 (≈ 5.19 µg/mL)	100 (≈ 40.2 µg/mL)	49 (≈ 19.7 µg/mL)	> 100	100 (≈ 40.2 µg/mL)	> 100	
NNC(=O)c1ccncc1 [ISONIAZID]	0.2 (≈ 0.0274 µg/mL)	1.4 (≈ 0.192 µg/mL)	> 100	1.8 (≈ 0.247 µg/mL)	0.09 (≈ 0.0123 µg/mL)	9.8 (≈ 1.34 µg/mL)	0.06 (≈ 0.00823 µg/mL)	6.7 (≈ 0.919 µg/mL)	4.7 (≈ 0.645 µg/mL)	> 100	
CC(=O)NC[C@H]1CN(c2ccn(N3CCOCC3)c2)C(=O)O1		> 100	> 100	> 100	> 100		> 100			> 1000	
CC(=O)NC[C@H]1CN(c2ccn(-c3cccc(F)c3)c2)C(=O)O1	76.9 (≈ 24.4 µg/mL)	4.6 (≈ 1.46 µg/mL)	> 100	14.5 (≈ 4.6 µg/mL)	12.9 (≈ 4.09 µg/mL)	91.4 (≈ 29 µg/mL)	9.4 (≈ 2.98 µg/mL)	56.3 (≈ 17.9 µg/mL)	39.8 (≈ 12.6 µg/mL)	> 100	
CC(=O)NC[C@H]1CN(c2ccn(-c3ccccc3F)c2)C(=O)O1		2 (≈ 0.635 µg/mL)	33.3	4.2 (≈ 1.33 µg/mL)	3.6 (≈ 1.14 µg/mL)	24.7 (≈ 7.84 µg/mL)		15.7 (≈ 4.98 µg/mL)	8.9 (≈ 2.82 µg/mL)	88.6 (≈ 28.1 µg/mL)	> 100
